Results: patent publication US20250230193A1, “CYCLIC COMPOUND HAVING SELECTIVE KRAS INHIBITORY EFFECT ON HRAS AND NRAS” (CHUGAI SEIYAKU KABUSHIKI KAISHA, priority 2022, published 2025)

Legend:
[1] = biological target: GDP-bound HRAS wild-type protein (Homo sapiens, UniProt P01112); experiment: Binding to HRAS by surface plasmon resonance (SPR), Single Cycle Kinetics; conditions: GDP-bound HRAS wild-type vs GDP-bound KRAS wild-type, SPR
[2] = biological target: GDP-bound NRAS wild-type protein (Homo sapiens, UniProt P01111); experiment: Binding to NRAS by surface plasmon resonance (SPR), Single Cycle Kinetics; conditions: GDP-bound NRAS wild-type vs GDP-bound KRAS wild-type, SPR
GDP-bound NRAS wild-type protein, sequence (P01111 whole entry): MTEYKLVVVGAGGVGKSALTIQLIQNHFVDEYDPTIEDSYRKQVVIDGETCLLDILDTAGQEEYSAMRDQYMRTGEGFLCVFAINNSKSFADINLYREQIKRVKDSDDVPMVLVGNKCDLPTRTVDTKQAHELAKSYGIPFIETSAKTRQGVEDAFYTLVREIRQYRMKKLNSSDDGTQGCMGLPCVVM

GDP-bound HRAS wild-type protein, sequence (P01112 whole entry): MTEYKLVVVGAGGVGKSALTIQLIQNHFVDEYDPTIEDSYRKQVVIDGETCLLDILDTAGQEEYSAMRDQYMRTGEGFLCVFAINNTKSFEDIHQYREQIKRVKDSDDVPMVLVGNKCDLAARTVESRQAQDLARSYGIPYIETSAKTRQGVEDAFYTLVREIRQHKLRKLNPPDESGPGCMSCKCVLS

## CCO[C@@H]1C[C@H]2C(=O)NC3(CC(F)(F)C3)C(=O)N(C)[C@@H](C(CC)CC)C(=O)N3CCC[C@@H]3CC(=O)N(C)[C@@H](CC)C(=O)N[C@@H]([C@@H](C)CC)C(=O)N(C)CC(=O)N(C)[C@H]3C/C=C\CCN(C3=O)[C@@H](Cc3ccc(C(F)(F)F)cc3)C(=O)N(C)CC(=O)N[C@@H](CCc3cc(F)c(C(F)(F)F)c(F)c3)C(=O)N2C1 [PP1608]
[1]; KD ratio
  HRAS/KRAS (ratio of KD value for HRAS to KD value for KRAS): A (a compound having 10 or more and less than 20 is denoted as A)
[2]; KD ratio
  NRAS/KRAS (ratio of KD value for NRAS to KD value for KRAS): A (a compound having 10 or more and less than 20 is denoted as A)

## CC[C@H](C)[C@@H]1NC(=O)[C@H](CC)N(C)C(=O)C[C@@H](C(=O)N(C)C)N(C)C(=O)[C@H](C2CCCC2)N(C)C(=O)C2(CCC2)NC(=O)[C@H](C)N(C)C(=O)[C@H](CCc2cc(F)c(C(F)(F)F)c(F)c2)NC(=O)CN(C)C(=O)[C@H](Cc2ccc(C(F)(F)F)cc2)N2CC/C=C\C[C@@H](C2=O)N(C)C(=O)CN(C)C1=O [PP1146]
[1]; KD ratio
  HRAS/KRAS (ratio of KD value with respect to HRAS to KD value with respect to KRAS): B (a compound having 3 or more and less than 10 is denoted as B)
[2]; KD ratio
  NRAS/KRAS (ratio of KD value with respect to NRAS to KD value with respect to KRAS): A (a compound having 10 or more and less than 20 is denoted as A)

## CCCC[C@H]1C(=O)N[C@@H]([C@@H](C)CC)C(=O)N(C)CC(=O)N(C)[C@H]2C/C=C\CCN(C2=O)[C@@H](Cc2ccc(C(F)(F)F)cc2)C(=O)N(C)CC(=O)N[C@@H](CCc2ccc(C(F)(F)F)c(Cl)c2)C(=O)N2C[C@H](OCC)C[C@H]2C(=O)NC2(CC(C)(C)C2)C(=O)N(C)[C@@H](C2CCCC2)C(=O)N(C)[C@H](C(=O)N(C)C)CC(=O)N1C [PP1750]
[1]; KD ratio
  HRAS/KRAS (ratio of KD value for HRAS to KD value for KRAS): B (a compound having 3 or more and less than 10 is denoted as B)
[2]; KD ratio
  NRAS/KRAS (ratio of KD value for NRAS to KD value for KRAS): A (a compound having 10 or more and less than 20 is denoted as A)

## CCOC[C@H]1C(=O)N[C@@H]([C@@H](C)CC)C(=O)N2CCC[C@H]2C(=O)N(C)[C@H]2C/C=C\CCN(C2=O)[C@@H](Cc2ccc(C(F)(F)F)cc2)C(=O)N(C)CC(=O)N[C@@H](CCc2ccc(C(F)(F)F)c(OC)c2)C(=O)N2C[C@H](OCC)C[C@H]2C(=O)N(C)C2(CCC2)C(=O)N(C)[C@@H](C(CC)CC)C(=O)N(C)[C@H](C(=O)N(C)C)CC(=O)N1C [PP2319]
[1]
  HRAS/KRAS (ratio of KD value with respect to HRAS to KD value with respect to KRAS): A (a compound having 10 or more and less than 20 is denoted as A)
[2]
  NRAS/KRAS (ratio of KD value with respect to NRAS to KD value with respect to KRAS): AA (a compound having 20 or more is denoted as AA)

## CCO[C@@H]1C[C@H]2C(=O)NC3(CCC3)C(=O)N(C)[C@@H](C3CCCC3)C(=O)N(C)[C@H](C(=O)N(C)C)CC(=O)N(C)[C@@H](Cc3ccc(F)cc3)C(=O)N[C@@H]([C@@H](C)CC)C(=O)N(C)CC(=O)N(C)[C@H]3CCCCCN(C3=O)[C@@H](Cc3ccc(C(F)(F)F)cc3)C(=O)N(C)CC(=O)N[C@@H](CCc3cc(F)c(C(F)(F)F)c(F)c3)C(=O)N2C1 [PP0936]
[1]; KD ratio
  HRAS/KRAS (ratio of KD value with respect to HRAS to KD value with respect to KRAS): B (a compound having 3 or more and less than 10 is denoted as B)
[2]; KD ratio
  NRAS/KRAS (ratio of KD value with respect to NRAS to KD value with respect to KRAS): B (a compound having 3 or more and less than 10 is denoted as B)

## CCC[C@@H]1C[C@H]2C(=O)NC3(CC(C)(C)C3)C(=O)N(C)[C@@H](C3CCCC3)C(=O)N(C)[C@H](C(=O)N(C)C)CC(=O)N(C)[C@@H](COC)C(=O)N[C@@H]([C@@H](C)CC)C(=O)N(C)CC(=O)N(C)[C@H]3C/C=C\CCN(C3=O)[C@@H](Cc3ccc(C(F)(F)F)cc3)C(=O)N(C)CC(=O)N[C@@H](CCc3ccc(C(F)(F)F)c(Cl)c3)C(=O)N2C1 [PP2275]
[1]
  HRAS/KRAS (ratio of KD value with respect to HRAS to KD value with respect to KRAS): A (a compound having 10 or more and less than 20 is denoted as A)
[2]
  NRAS/KRAS (ratio of KD value with respect to NRAS to KD value with respect to KRAS): A (a compound having 10 or more and less than 20 is denoted as A)

## CCC[C@H]1C(=O)N[C@@H](C(CC)CC)C(=O)N(C)CC(=O)N(C)[C@H]2C/C=C\CCN(C2=O)[C@@H](Cc2ccc(C)cc2)C(=O)N(C)CC(=O)N[C@@H](CCc2ccc(C(F)(F)F)c(Cl)c2)C(=O)N2C[C@H](OCC)C[C@H]2C(=O)NC2(CC(C)(C)C2)C(=O)N(C)[C@@H](C2CCCC2)C(=O)N(C)[C@H](C(=O)N(C)C)CC(=O)N1C [PP2209]
[1]
  HRAS/KRAS (ratio of KD value with respect to HRAS to KD value with respect to KRAS): A (a compound having 10 or more and less than 20 is denoted as A)
[2]
  NRAS/KRAS (ratio of KD value with respect to NRAS to KD value with respect to KRAS): A (a compound having 10 or more and less than 20 is denoted as A)
